Some results are limits rather than exact numbers.

Assay [1] has as its system DLD1-WRN-KO cells. Kind of assay: Proliferation assay DLD1-WRN-KO (CellTiterGlo, off-target effects). In kind it is cell-based. The following applies: 96 hours, geometric mean of at least 2. In outline:
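DLD1 cells with CRISPR knockout of WRN were exposed overnight-seeded to eight 3-fold compound dilutions (0.1% DMSO) for 96 h at 37 °C. Viability was read as ATP by CellTiterGlo luminescence against a day-0 plate, giving GI50 and residual viability at top concentration.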
For orientation: In ATP-based viability assays light output follows the ATP content of the culture.

Assay [2] has as its target T1, WRN helicase (aa N517-P1238) (Homo sapiens, UniProt Q14191).
T1 construct: The core helicase motif of the WRN protein (aa N517-P1238) was produced for this assay; His (N); ZZ (N); 3C protease cleavage site (N); made in house; host or cells: Sf21 insect cells (baculovirus; virus and BIICs made in SF9)
Nature of the assay: WRN ATPase assay (DNA dependent ATP hydrolysis, ADP-Glo). In kind it is biochemical. The following applies: 3 hours pre-incubation, 300 micromolar ATP, FLAP26 DNA; geometric mean of at least 2. Put shortly: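 DNA-dependent ATP hydrolysis detected as ADP by ADP-Glo luminescence, using 300 μM ATP, 0.2 nM FLAP26 substrate and 10 nM WRN aa N517-P1238 (Tris pH 7.5 buffer, 2 mM MgCl2, 50 mM NaCl). IC50s fitted from normalized duplicate half-log dilutions; reported as geometric means of at least 2 replicates.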
A general note: ADP-Glo first removes unused ATP, then detects ADP through luciferase.

The test system of assay [3] is SW48 cells. Kind of assay: Proliferation assay SW48 (CellTiterGlo). In kind it is cell-based. The following applies: Homo sapiens, SW48, 96 h, SW48 colon carcinoma cells, 96 hours, CellTiterGlo; geometric mean of at least 2; read-out: Proliferation Assay SW48 GI50. Put shortly: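 Read-out is CellTiterGlo luminescence after 96 hours of compound exposure, with % growth calculated against day-0 and vehicle-treated ATP levels. SW48 seeded at 2,000 cells/well, dosed next day with eight 3-fold serial dilutions, 0.1% DMSO. GI50 reported as geometric mean, at least 2 replicates.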

T1 sequence (Q14191 517-1238): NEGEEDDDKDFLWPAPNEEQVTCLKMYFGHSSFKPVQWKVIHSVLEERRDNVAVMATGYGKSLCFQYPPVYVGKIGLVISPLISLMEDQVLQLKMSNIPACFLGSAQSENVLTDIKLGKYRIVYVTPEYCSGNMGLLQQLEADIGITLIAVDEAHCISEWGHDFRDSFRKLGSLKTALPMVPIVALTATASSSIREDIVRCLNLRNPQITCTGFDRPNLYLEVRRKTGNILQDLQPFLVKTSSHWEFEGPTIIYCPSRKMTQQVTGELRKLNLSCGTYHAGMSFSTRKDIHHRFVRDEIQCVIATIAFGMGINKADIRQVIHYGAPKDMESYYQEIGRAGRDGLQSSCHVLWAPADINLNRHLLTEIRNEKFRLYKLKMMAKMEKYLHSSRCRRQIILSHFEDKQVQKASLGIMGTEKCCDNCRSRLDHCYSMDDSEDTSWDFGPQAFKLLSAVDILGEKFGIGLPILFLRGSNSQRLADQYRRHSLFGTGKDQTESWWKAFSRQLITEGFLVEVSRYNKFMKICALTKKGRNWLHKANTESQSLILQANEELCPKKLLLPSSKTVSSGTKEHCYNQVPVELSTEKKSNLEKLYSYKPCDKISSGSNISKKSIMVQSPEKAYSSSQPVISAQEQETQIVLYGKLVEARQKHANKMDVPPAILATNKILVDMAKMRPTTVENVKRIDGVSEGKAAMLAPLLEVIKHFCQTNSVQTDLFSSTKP

For `Cc1c(N2CCN(C(=O)c3ncccc3N)CC2)c(=O)n2nc(N3CCOCC3)nc2n1CC(=O)Nc1ccc(C(F)(F)F)cc1` [Example 160, 2-(6-(4-(3-aminopicolinoyl)piperazin-1-yl)-5-methyl-2-morpholino-7-oxo-[1,2,4]triazolo[1,5-a]pyrimidin-4(7H)-yl)-N-(4-(trifluoromethyl)phenyl)acetamide], the GI50 in assay [1] was more than 10 µM; in assay [3] it was 6 µM. Besides, in assay [2], the IC50 (usually the concentration needed to halve the response being measured) turned out to be 0.6 µM.

`CC(=O)N1C2CCC1CN(c1c(C)n(CC(=O)Nc3ccc(C(F)(F)F)cc3)c3nc(C4=CCOCC4)nn3c1=O)C2` [Example 161, 2-(6-(8-acetyl-3,8-diazabicyclo[3.2.1]octan-3-yl)-2-(3,6-dihydro-2H-pyran-4-yl)-5-methyl-7-oxo-[1,2,4]triazolo[1,5-a]pyrimidin-4(7H)-yl)-N-(4-(trifluoromethyl)phenyl)acetamide]: the GI50 in assay [1] is more than 10 µM; in assay [3] it was 5 µM. The compound further came in with an IC50 in assay [2] of 0.7 µM.

In the case of `CC(=O)N1CCN(c2c(C(C)C)n(CC(=O)Nc3ccc(C(F)(F)F)cc3)c3nc(C4=CCOCC4)nn3c2=O)CC1` [Example 162, 2-(6-(4-acetylpiperazin-1-yl)-2-(3,6-dihydro-2H-pyran-4-yl)-5-isopropyl-7-oxo-[1,2,4]triazolo[1,5-a]pyrimidin-4(7H)-yl)-N-(4-(trifluoromethyl)phenyl)acetamide], the GI50 is more than 10 µM in assay [1] and 3 µM in assay [3]. Besides, it took 0.9 µM to reach half-maximal inhibition in assay [2] (IC50).

Take `CC(=O)N1CCN(c2c(C)n(CC(=O)Nc3ccc(C(F)(F)F)cc3)c3nc(C4=CCOCC4)nn3c2=O)CC1C` (stereo not drawn) [Example 163, 2-(6-(4-acetyl-3-methylpiperazin-1-yl)-2-(3,6-dihydro-2H-pyran-4-yl)-5-methyl-7-oxo-[1,2,4]triazolo[1,5-a]pyrimidin-4(7H)-yl)-N-(4-(trifluoromethyl)phenyl)acetamide]: the GI50 is more than 10 µM in assay [1] and 7 µM in assay [3]. The IC50 in assay [2] is 1 µM.

With `Cc1c(N2CCN(C(=O)c3cc(C#N)n[nH]3)CC2)c(=O)n2nc(C3=CCOCC3)nc2n1CC(=O)Nc1ccc(C(F)(F)F)cc1` [Example 164, 2-(6-(4-(3-cyano-1H-pyrazole-5-carbonyl)piperazin-1-yl)-2-(3,6-dihydro-2H-pyran-4-yl)-5-methyl-7-oxo-[1,2,4]triazolo[1,5-a]pyrimidin-4(7H)-yl)-N-(4-(trifluoromethyl)phenyl)acetamide], the GI50 in assay [1] and in assay [3] was more than 10 µM throughout. This compound gave an IC50 in assay [2] of 0.05 µM.

Regarding `Cc1c(N2CCN(C(=O)c3c[nH]c(=O)cn3)CC2)c(=O)n2nc(N3CCOCC3)nc2n1CC(=O)Nc1ccc(C(F)(F)F)cc1` [Example 166, 2-(5-methyl-2-morpholino-7-oxo-6-(4-(5-oxo-4,5-dihydropyrazine-2-carbonyl)piperazin-1-yl)-[1,2,4]triazolo[1,5-a]pyrimidin-4(7H)-yl)-N-(4-(trifluoromethyl)phenyl)acetamide], the GI50 in assay [1] and in assay [3] was more than 10 µM each time. The compound further yielded an IC50 in assay [2] of 0.1 µM.
